Test results reported in US9549558B2, “Herbicidal azines” (BASF SE, priority 2012, dated 2017).

Key:
Assay type in all cases: in vivo
[1] = system: AMARE (Amaranthus retroflexus); experiment: greenhouse post-emergence herbicidal test; conditions: 62 g/ha
Summary of the method: (§1)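 Post-emergence greenhouse test on plants grown to 3–15 cm in loamy sand (~3.0% humus), sprayed with active ingredient suspended or emulsified in water. Plants held at 10-25 °C or 20-35 °C by species for 2 to 4 weeks, then damage scored visually 0–100 (100 = complete destruction of aerial parts, 0 = no damage).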

SETVI (Setaria viridis) = experiment: greenhouse post-emergence herbicidal test; conditions: 62 g/ha
Summary of the method: as §1

THLAR (Thlaspi arvense) = experiment: greenhouse pre-emergence herbicidal test; conditions: 0.125 kg/ha
Summary of the method: (§2)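 Seeds were sown in loamy sand with about 3.0% humus, and compounds suspended or emulsified in water were sprayed right after sowing. Pots were kept under transparent hoods until rooting at 10-25° C. or 20-35° C. depending on species, and damage was scored 0-100 after 2 to 4 weeks.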

POAAN (Poa annua) = experiment: greenhouse pre-emergence herbicidal test; conditions: 2000 g/ha
Summary of the method: as §2

[2] = system: MATIN (Matricaria maritima); experiment: greenhouse pre-emergence herbicidal test; conditions: 2000 g/ha
Summary of the method: as §2

## CC(C)(C)C(=O)N(c1nc(N)nc(C(C)(C)C)n1)c1c(F)c(F)c(F)c(F)c1F [Example 283]
[1]
  herbicidal activity: very good (a very good herbicidal activity is given at values of at least 85)
SETVI (Setaria viridis)
  herbicidal activity: good (a good herbicidal activity is given at values of at least 70)

## CC(C)(F)c1nc(N)nc(Nc2cc(C(F)(F)F)cc(C(F)(F)F)c2)n1 [Example 46]
THLAR (Thlaspi arvense)
  herbicidal activity: very good (a very good herbicidal activity is given at values of at least 85)

## CC(O)c1nc(N)nc(Nc2c(F)c(F)c(F)c(F)c2F)n1 (centres unmarked) [Example 69]
POAAN (Poa annua)
  herbicidal activity: very good (a very good herbicidal activity is given at values of at least 85)
[2]
  herbicidal activity: very good (a very good herbicidal activity is given at values of at least 85)
